Assay results reported in patent US20140088103A1, “(FUSED RING ARYLAMINO AND HETEROCYCLYLAMINO) PYRIMIDINYL AND 1,3,5-TRIAZINYL BENZIMIDAZOLES, PHARMACEUTICAL COMPOSITIONS THEREOF, AND THEIR USE IN TREATING PROLIFERATIVE DISEASES” (MEI PHARMA, INC., priority 2011, published 2014).

What was measured:
PI3K alpha (p110α) = target: T1, PI3K alpha (p110α) (Homo sapiens, UniProt P42336); assay: Luciferase-based luminescence assay (Kinase GLO), PI3K alpha; assay type: biochemical; conditions: 1.65 nM enzyme, 50 μM PIP2, 25 μM ATP, 1 hour reaction
T1 construct: purchased Invitrogen Corp., Carlsbad, Calif., USA
Experimental: (§1) PI3K catalyzes the conversion of phosphatidylinositol-4,5-bisphosphate (PIP2) and ATP to phosphatidylinositol-3,4,5-trisphosphate (PIP3) and ADP. PI3K enzymatic activity was determined by measuring the amount of ATP consumed following the kinase reaction using a luciferase-based luminescence assay (Kinase GLO®, Promega Corp., Madison, Wis., USA) in a reaction buffer. The reaction buffer contained 50 mM HEPES, pH 7.5, 3 mM MgCl2, 1 mM EGTA, 100 mM NaCl, 0.03% CHAPS, and 2 mM DTT. Compounds for testing were dissolved and serially diluted in 100% DMSO (total of 10 concentrations), and then diluted 1:25 in the reaction buffer. PI3K enzyme solutions were prepared by diluting PI3K alpha (Invitrogen Corp., Carlsbad, Calif., USA) or PI3K delta (Millipore, Billerica, Mass., USA) in the reaction buffer to 4× the final assay concentration. The final concentrations of enzymes were 1.65 nM and 6.86 nM for PI3K alpha and PI3K delta, respectively. A substrate solution was prepared by mixing PIP2 and ATP in reaction buffer at 2× the final assay concentration. The final concentrations were 50 μM and 25 μM for PIP2 and ATP, respectively. To individual wells of white low volume 384-well assay plates were added 2.5 μl each of the compound and kinase mixtures, followed by shaking. The reactions were started by adding 5 μl of substrate mixture per well and shaking. The assay plates were covered and reactions were allowed to proceed for 1 hour (PI3K alpha) or 2 hours (PI3K delta), after which 10 μl of Kinase GLO® reagent was added. The plates were briefly centrifuged and incubated for 10 minutes, after which luminescence was measured using a FlexStation plate reader (Molecular Devices, Sunnyvale, Calif., USA). IC50 values were determined by curve fitting using Graphpad Prism software (Graphpad Software, La Jolla, Calif., USA).

PI3K delta (p110δ) = target: T2, PI3K delta (p110δ) (Homo sapiens, UniProt O00329); assay: Luciferase-based luminescence assay (Kinase GLO), PI3K delta; assay type: biochemical; conditions: for IC50: 6.86 nM enzyme, 50 μM PIP2, 25 μM ATP, 2 hours reaction; for α/δ ratio: ratio of IC50 against PI3Kα over IC50 against PI3Kδ
T2 construct: purchased Millipore, Billerica, Mass., USA
Experimental: as §1

T1 sequence (P42336 whole entry): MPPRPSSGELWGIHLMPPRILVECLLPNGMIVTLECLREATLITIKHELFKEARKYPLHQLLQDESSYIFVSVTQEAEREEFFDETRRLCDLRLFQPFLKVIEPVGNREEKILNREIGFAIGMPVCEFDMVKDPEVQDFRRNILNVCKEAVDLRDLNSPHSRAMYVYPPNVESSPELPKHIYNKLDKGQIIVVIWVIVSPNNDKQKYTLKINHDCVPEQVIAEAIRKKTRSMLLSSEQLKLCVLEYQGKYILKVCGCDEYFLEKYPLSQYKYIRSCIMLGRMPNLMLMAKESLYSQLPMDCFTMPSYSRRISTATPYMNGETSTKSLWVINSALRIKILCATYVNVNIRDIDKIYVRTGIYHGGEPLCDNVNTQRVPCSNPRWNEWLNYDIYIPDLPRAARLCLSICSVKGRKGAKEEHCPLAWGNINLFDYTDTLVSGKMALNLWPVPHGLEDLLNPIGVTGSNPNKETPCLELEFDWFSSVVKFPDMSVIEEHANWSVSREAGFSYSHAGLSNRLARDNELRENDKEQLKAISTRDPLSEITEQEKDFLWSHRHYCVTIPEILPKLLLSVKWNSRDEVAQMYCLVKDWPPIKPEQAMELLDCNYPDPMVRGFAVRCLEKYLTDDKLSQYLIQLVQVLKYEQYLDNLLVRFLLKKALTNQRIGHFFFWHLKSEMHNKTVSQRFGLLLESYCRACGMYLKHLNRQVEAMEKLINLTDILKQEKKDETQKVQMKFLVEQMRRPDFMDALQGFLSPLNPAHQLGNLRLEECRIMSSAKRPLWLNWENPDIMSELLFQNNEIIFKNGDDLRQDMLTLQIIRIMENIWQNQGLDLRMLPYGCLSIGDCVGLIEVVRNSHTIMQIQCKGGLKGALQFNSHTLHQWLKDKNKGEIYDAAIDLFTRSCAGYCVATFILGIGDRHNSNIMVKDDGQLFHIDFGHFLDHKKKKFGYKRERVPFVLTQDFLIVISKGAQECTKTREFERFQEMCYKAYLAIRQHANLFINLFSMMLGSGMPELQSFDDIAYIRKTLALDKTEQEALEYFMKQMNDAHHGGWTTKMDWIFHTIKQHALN
T1 sequence (P27986 whole entry partner): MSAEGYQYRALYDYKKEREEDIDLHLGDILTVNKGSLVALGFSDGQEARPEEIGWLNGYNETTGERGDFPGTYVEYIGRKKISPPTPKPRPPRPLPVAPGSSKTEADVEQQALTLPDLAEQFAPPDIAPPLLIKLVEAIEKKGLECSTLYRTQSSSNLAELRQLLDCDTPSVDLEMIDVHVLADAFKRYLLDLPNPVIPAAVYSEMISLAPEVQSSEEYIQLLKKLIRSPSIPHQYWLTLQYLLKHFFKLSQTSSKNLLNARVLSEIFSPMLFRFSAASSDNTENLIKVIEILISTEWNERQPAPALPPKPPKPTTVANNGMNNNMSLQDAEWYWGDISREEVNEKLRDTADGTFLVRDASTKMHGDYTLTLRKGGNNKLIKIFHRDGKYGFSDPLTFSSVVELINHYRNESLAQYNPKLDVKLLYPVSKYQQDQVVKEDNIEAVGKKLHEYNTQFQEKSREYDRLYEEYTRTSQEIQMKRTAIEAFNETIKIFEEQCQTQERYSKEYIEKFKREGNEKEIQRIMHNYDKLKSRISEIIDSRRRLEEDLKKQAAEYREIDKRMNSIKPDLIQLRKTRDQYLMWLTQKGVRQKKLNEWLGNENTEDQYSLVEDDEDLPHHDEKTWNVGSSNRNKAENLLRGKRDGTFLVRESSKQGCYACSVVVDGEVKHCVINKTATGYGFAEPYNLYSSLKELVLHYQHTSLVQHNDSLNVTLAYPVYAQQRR
T2 sequence (O00329 whole entry): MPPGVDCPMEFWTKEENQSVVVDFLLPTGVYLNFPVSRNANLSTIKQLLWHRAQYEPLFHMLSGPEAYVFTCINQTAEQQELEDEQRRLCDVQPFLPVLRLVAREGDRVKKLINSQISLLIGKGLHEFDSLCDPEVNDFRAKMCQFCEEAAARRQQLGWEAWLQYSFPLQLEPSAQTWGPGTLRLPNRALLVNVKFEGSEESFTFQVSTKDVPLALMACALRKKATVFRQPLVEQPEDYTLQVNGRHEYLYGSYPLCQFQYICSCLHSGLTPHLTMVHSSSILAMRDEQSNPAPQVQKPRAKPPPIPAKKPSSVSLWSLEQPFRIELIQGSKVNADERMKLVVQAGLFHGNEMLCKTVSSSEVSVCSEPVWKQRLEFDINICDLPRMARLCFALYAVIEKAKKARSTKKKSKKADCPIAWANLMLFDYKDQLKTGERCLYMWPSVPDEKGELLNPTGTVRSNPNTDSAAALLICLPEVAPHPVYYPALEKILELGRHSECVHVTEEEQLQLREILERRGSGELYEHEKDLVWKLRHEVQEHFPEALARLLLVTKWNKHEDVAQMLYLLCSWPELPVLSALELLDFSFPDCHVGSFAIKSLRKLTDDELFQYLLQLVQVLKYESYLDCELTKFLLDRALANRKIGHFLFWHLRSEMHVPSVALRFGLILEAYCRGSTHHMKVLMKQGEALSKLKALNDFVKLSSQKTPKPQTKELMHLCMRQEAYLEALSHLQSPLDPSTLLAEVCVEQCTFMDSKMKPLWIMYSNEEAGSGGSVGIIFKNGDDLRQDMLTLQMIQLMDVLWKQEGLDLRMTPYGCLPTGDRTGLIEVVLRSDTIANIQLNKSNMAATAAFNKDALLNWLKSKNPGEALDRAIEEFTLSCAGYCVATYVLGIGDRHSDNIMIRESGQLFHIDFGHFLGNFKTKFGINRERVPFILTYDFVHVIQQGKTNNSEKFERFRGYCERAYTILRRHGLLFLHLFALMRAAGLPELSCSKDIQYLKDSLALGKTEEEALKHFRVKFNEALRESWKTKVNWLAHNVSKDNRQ
T2 sequence (P27986 whole entry partner): as the sequence (P27986 whole entry partner) above

IC50 (PI3K alpha (p110α)) [nM] | IC50 (PI3K delta (p110δ)) [nM] | SMILES | α/δ ratio (PI3K delta (p110δ))
> 500 | ≤ 100 | FC(F)c1nc2ccccc2n1-c1nc(NC2CCc3ccccc32)nc(N2CCOCC2)n1 (stereo not drawn) [Compound A4, 4-(2-(difluoromethyl)-1H-benzo[d]imidazol-1-yl)-N-(2,3-dihydro-1H-inden-1-yl)-6-morpholino-1,3,5-triazin-2-amine] | A′ (A′ represents a ratio of greater than 8)
> 500 | 200 to 500 | FC(F)c1nc2ccccc2n1-c1nc(NC2CCc3ccc(Cl)cc32)nc(N2CCOCC2)n1 (stereo not drawn) [Compound A8, N-(6-chloro-2,3-dihydro-1H-inden-1-yl)-4-(2-(difluoromethyl)-1H-benzo[d]imidazol-1-yl)-6-morpholino-1,3,5-triazin-2-amine] | A′ (A′ represents a ratio of greater than 8)
> 500 | > 500 | FC(F)c1nc2ccccc2n1-c1nc(N[C@@H]2CCCc3ccccc32)nc(N2CCOCC2)n1 [Compound A3, (R)-4-(2-(difluoromethyl)-1H-benzo[d]imidazol-1-yl)-6-morpholino-N-(1,2,3,4-tetrahydronaphthalen-1-yl)-1,3,5-triazin-2-amine] | B′ (B′ represents a ratio of no less than 4 but no greater than 8)
> 500 | 100 to 200 | FC(F)c1nc2ccccc2n1-c1nc(N[C@H]2CCc3ccccc32)nc(N2CCOCC2)n1 [Compound A5, (S)-4-(2-(difluoromethyl)-1H-benzo[d]imidazol-1-yl)-N-(2,3-dihydro-1H-inden-1-yl)-6-morpholino-1,3,5-triazin-2-amine] | A′ (A′ represents a ratio of greater than 8)
> 500 | > 500 | FC(F)c1nc2ccccc2n1-c1nc(NC2CCc3cc(Cl)ccc32)nc(N2CCOCC2)n1 (stereo not drawn) [Compound A7, N-(5-chloro-2,3-dihydro-1H-inden-1-yl)-4-(2-(difluoromethyl)-1H-benzo[d]imidazol-1-yl)-6-morpholino-1,3,5-triazin-2-amine] | A′ (A′ represents a ratio of greater than 8)
> 500 | 200 to 500 | COc1ccc2c(c1)CCC2Nc1nc(N2CCOCC2)nc(-n2c(C(F)F)nc3ccccc32)n1 (stereo not drawn) [Compound A9, 4-(2-(difluoromethyl)-1H-benzo[d]imidazol-1-yl)-N-(5-methoxy-2,3-dihydro-1H-inden-1-yl)-6-morpholino-1,3,5-triazin-2-amine] | C′ (C′ represents a ratio of greater than 2 but less than 4)
> 500 | 200 to 500 | FC(F)c1nc2ccccc2n1-c1nc(N[C@@H]2CCc3ccccc32)nc(N2CCOCC2)n1 [Compound A6, (R)-4-(2-(difluoromethyl)-1H-benzo[d]imidazol-1-yl)-N-(2,3-dihydro-1H-inden-1-yl)-6-morpholino-1,3,5-triazin-2-amine] | C′ (C′ represents a ratio of greater than 2 but less than 4)
100 to 200 | 100 to 200 | FC(F)c1nc2ccccc2n1-c1nc(NCc2ccccc2)nc(N2CCOCC2)n1 [Ref. 1, N-benzyl-4-(2-(difluoromethyl)-1H-benzo[d]imidazol-1-yl)-6-morpholino-1,3,5-triazin-2-amine, reference compound] | D′ (D′ represents a ratio of no greater than 2)
> 500 | 100 to 200 | FC(F)c1nc2ccccc2n1-c1nc(NC2CCCc3ccccc32)nc(N2CCOCC2)n1 (stereo not drawn) [Compound A1, 4-(2-(difluoromethyl)-1H-benzo[d]imidazol-1-yl)-6-morpholino-N-(1,2,3,4-tetrahydronaphthalen-1-yl)-1,3,5-triazin-2-amine] | A′ (A′ represents a ratio of greater than 8)
> 500 | ≤ 100 | FC(F)c1nc2ccccc2n1-c1nc(N[C@H]2CCCc3ccccc32)nc(N2CCOCC2)n1 [Compound A2, (S)-4-(2-(difluoromethyl)-1H-benzo[d]imidazol-1-yl)-6-morpholino-N-(1,2,3,4-tetrahydronaphthalen-1-yl)-1,3,5-triazin-2-amine] | A′ (A′ represents a ratio of greater than 8)
> 500 | 200 to 500 | COc1ccc2c(c1)C(Nc1nc(N3CCOCC3)nc(-n3c(C(F)F)nc4ccccc43)n1)CC2 (stereo not drawn) [Compound A10, 4-(2-(difluoromethyl)-1H-benzo[d]imidazol-1-yl)-N-(6-methoxy-2,3-dihydro-1H-inden-1-yl)-6-morpholino-1,3,5-triazin-2-amine] | C′ (C′ represents a ratio of greater than 2 but less than 4)
